Experimental data from patent publication US20150056166A1, “FLAVONE DERIVATIVES AND THEIR USE” (Twincore GmbH, priority 2012, published 2015).

Tests used:
[1] = test system: subgenomic JFH1 luciferase replicon; assay: HCV RNA translation and replication, subgenomic luciferase replicon in Huh7-Lunet/CD81 cells; format: cell-based; conditions: up to a dose of 10 μM, 72 h post transfection
Protocol: (A) Huh7-Lunet/CD81 cells were transfected with the subgenomic luciferase replicon depicted at the top. Drugs were added 4 h post transfection and the level of HCV RNA translation and RNA replication was quantified by luciferase assays 72 h post transfection. Mean values of three independent experiments each with quadruplicate measurements including the standard deviation are shown. (B) Cells were transfected with the Jc1 chimera depicted above and drugs were added 4 h later. HCV virus release in the presence or absence of given compounds was determined by quantification of intracellular and extracellular core protein levels using a core-specific ELISA. Mean values of three independent experiments with single measurements including the error range are given. (C) Huh7-Lunet/CD81 cells were inoculated with Luc-Jc1 reporter viruses prepared in the absence of drugs. […] Infectivity was determined 72 h later by luciferase assays and compared to DMSO-treated controls. […]
To characterize the antiviral effect of BJ486K, the impact of BJ486K on the steps of HCV RNA translation and replication was assessed. To this end, Huh7-Lunet/CD81 cells were transfected with a subgenomic JFH1 luciferase replicon and RNA replication was monitored 72 h later by luciferase assays. […]

FF-Jc1 reporter virus = assay: HCV cell entry, FF-Jc1 reporter virus in Huh-7.5 cells (FIG. 9); format: cell-based; conditions: Hepatitis C virus, Huh7.5
Protocol: FIG. 9: Comparison of flavones 13, 14 and 15. Huh-7.5 cells were seeded in 12-well plates and infected for 4 h with FF-Jc1 reporter virus +/−inhibitor (ranging from 0-100 μM final concentration). 72 h after infection, the cells were lysed and the reporter activity measured. The mean values of 6 measurements are shown in the graph. Fluorine analogues of flavone 13, flavones 14 (BJ751/1) and 15 (BJ755-3 I), inhibit HCV cell entry with 8-10-fold increased effects compared to those of the flavone 13.

[2] = test system: cell culture derived particles from genotype 1a, 1b, 2b, 3a, 4a, 5a and 6a; assay: Genotype panel of chimeric reporter viruses, summary statement; format: cell-based, HCV; conditions: Hepatitis C virus
Con1/C3-HCV = assay: Infection of primary human hepatocytes, focus-formation assay; format: cell-based; conditions: Hepatitis C virus, genotype 1b, Hepatocyte, 72 h
Protocol: FIG. 4: BJ486K is not affected by viral resistance towards a SR-BI-targeting compound, inhibits HCV of different genotypes and prevents infection of primary human hepatocytes Huh7-Lunet/CD81 cells were inoculated with Luc-Jc1 or Luc-Jc1/E2/G451R reporter viruses in the presence of increasing doses of (A) ITX 5061 or (B) BJ486K. Cells were lysed 72 h later. Luciferase activity was determined and is expressed relative to control infections conducted in the presence of DMSO. Mean values of four independent experiments each with quadruplicate measurements including the standard deviation are shown. […] Luciferase activity was determined 72 h later and is expressed relative to infections in the presence of DMSO. […] The inhibition of HCV infection was assessed by focus-formation assay and is expressed as % inhibition relative to DMSO-treated cells. […]
Normal-appearing liver tissue from patients seronegative for HCV, hepatitis B virus, and human immunodeficiency virus (HIV) was obtained from adult patients undergoing partial hepatectomy for the therapy of metastases. […] Three days later, infectivity titers in culture supernatants were determined by focus-formation assay as previously described by (Pene et al., Journal of Viral Hepatitis 2009;16:705-15). […]

H77c (GT1a) = assay: Luciferase infection assay, chimeric reporter virus H77c/1a/R2a in Huh7-Lunet/CD81 cells; format: cell-based, HCV; conditions: Hepatitis C virus, Huh-7, 72 h

`COc1ccc(-c2cc(=O)c3c(O)c(O)c(OC)cc3o2)cc1` [BJ486K, 5,6-Dihydroxy-7-methoxy-2-(4-methoxy-phenyl)-chromen-4-one] was tested. Which “luciferase activity (HCV RNA translation and replication)” value [1] did it give?
The value was “not changed”.

And the EC50 (FF-Jc1 reporter virus)?
The EC50 was roughly 2 µM.

And the IC50 [2]?
Its IC50 is less than 4.2 µM.

What about the IC50 (Con1/C3-HCV) of the same compound?
Its IC50 is roughly 10 µM.

What about the IC50 (H77c (GT1a)) of the same compound?
The IC50 was 2.46 µM.

What about the IC90 (H77c (GT1a)) of the same compound?
Its IC90 is 11.6 µM.
